Type in all cases: in vivo
The test system of test [1] is pea aphid (Acyrthosiphon pisum [Harris]). In words: Initial contact activity against pea aphid (percent kill). The following applies: 72 hours exposure, read-out: Percent Kill PA, initial activity. On the procedure:
(§1) The test compound was dissolved in a small amount of acetone, and the acetone solution was dispersed in water containing one drop of isooctylphenyl polyethoxyethanol to make a solution having 1250 ppm (w/w) active ingredient. Aliquots of this solution were diluted with an appropriate amount of water to provide solutions containing various concentrations of active ingredient. Test organisms and techniques were as follows: the activity against Mexican bean beetle (Epilachna varivestis Muls.) and southern armyworm (Spodoptera eridania [Cram.]) was evaluated by dipping the leaves of pinto bean plants into the test solution and infesting the leaves with the appropriate immature-form insects when the foliage had dried. The activity against the pea aphid (Acyrthosiphon pisum [Harris]) was evaluated on broad bean plants whose leaves were dipped before infestation with adult aphids. The activity against twospotted spider mites (Tetranychus urticae Koch) was evaluated on pinto bean plants whose leaves were dipped after infestation with adult mites. The activity against the milkweed bug (Oncopeltus faciatus [Dallas]) was evaluated by spraying the test solutions into glass dishes or jars containing the adult insects. Following application of the compound and infestation the tests were maintained in a holding room at 80° F. and 50% relative humidity for an exposure period of 72 hours. At the end of this time the dead and living insects or mites were counted and the percent kill was calculated. Results of these tests are summarized in Table I. Most of the compounds tested were active against all the insects.

Test [2] concerns twospotted spider mites (Tetranychus urticae Koch). In words: Initial contact activity against twospotted spider mite (percent kill). Conditions: 72 hours exposure, read-out: Percent Kill SM, initial activity. As to the method:
as §1

Test [3] deals with Mexican bean beetle (Epilachna varivestis Muls.). In words: Initial contact activity against Mexican bean beetle (percent kill). The following applies: 72 hours exposure, read-out: Percent Kill MBB, initial activity. As to the method: as §1
Test [4] has as its system milkweed bug (Oncopeltus faciatus [Dallas]). In words: Initial contact activity against milkweed bug (percent kill). The following applies: 72 hours exposure, read-out: Percent Kill MWB, initial activity. On the procedure:
as §1

The test system of test [5] is southern armyworm (Spodoptera eridania [Cram.]). In words: Initial contact activity against southern armyworm (percent kill). Conditions: 72 hours exposure, read-out: Percent Kill AW, initial activity. As to the method:
as §1

Drawing on patent US4215069A, “Arylthiovinylcyclopropanecarboxylate intermediates” (FMC Corporation, priority 1979, dated 1980), this text covers mortality for 6 molecules.

Take `CC1(C)C(C=C(Cl)Sc2ccccc2)C1C(=O)OC(c1cccc(Oc2ccccc2)c1)C(F)(F)F` (mixture of isomers) [Example 7, α-trifluoromethyl-3-phenoxybenzyl cis,trans-3-[2-(E,Z)-chloro-2-phenylthioethenyl]-2,2-dimethylcyclopropanecarboxylate]: the mortality at 78 ppm in test [1] amounted to 94%; in test [3], 100%; in test [4], 5%; in test [5], 0%. In addition, the mortality at 312 ppm in test [1] was 100%; in test [3] it was 100%; in test [4], 32%; in test [5], 0%. For the same molecule, the mortality at 1250 ppm in test [1] came out at 100%; in test [2] it was 62%; in test [4], 100%; in test [5] it was 0%. Moreover, in test [3], the mortality at 20 ppm came out at 90%.
As for `CC1(C)C(C=C(Br)Sc2ccccc2)C1C(=O)OCc1cccc(Oc2ccccc2)c1` (mixture of isomers) [Example 10, 3-phenoxybenzyl cis,trans-3-[2-(E,Z)-bromo-2-phenylthioethenyl]-2,2-dimethylcyclopropanecarboxylate], the mortality at 78 ppm in test [1] is 24%; in test [3], 95%; in test [4], 5%; in test [5], 0%. In addition, the mortality at 312 ppm in test [1] came to 94%; in test [3] it was 94%; in test [4] it was 71%; in test [5] it was 44%. For the same molecule, the mortality at 1250 ppm in test [1] came to 95%; in test [2], 81%; in test [4], 100%; in test [5], 100%. Also, in test [3], the mortality at 20 ppm is 72%.
With `CC1(C)C(C=CSc2ccc(F)cc2)C1C(=O)OCc1cccc(Oc2ccccc2)c1` (mixture of isomers) [Example 5, 3-phenoxybenzyl cis,trans-3-[2-(E,Z)-(4-fluorophenylthio)ethenyl]-2,2-dimethylcyclopropanecarboxylate], the mortality at 78 ppm in test [1] amounted to 0%; in test [2] it was 0%; in test [3] it was 35%; in test [4], 0%; in test [5], 0%. Further, the mortality at 312 ppm was determined as 45% in test [1]; 0% in test [2]; 95% in test [3]; 5% in test [4]; 0% in test [5]. The mortality at 1250 ppm came to 35% in test [1], 0% in test [2], 15% in test [4] and 7% in test [5]. Further, the mortality at 20 ppm in test [3] amounted to 33%.
Consider `CC1(C)C(C=C(Cl)Sc2ccc(Cl)cc2)C1C(=O)OCc1cccc(Oc2ccccc2)c1` (mixture of isomers) [Example 9, 3-phenoxybenzyl cis,trans-3-[2-(E,Z)-chloro-2-(4-chlorophenylthio)ethenyl]-2,2-dimethylcyclopropanecarboxylate], for which the mortality at 78 ppm in test [1] was found to be 71%; in test [3], 100%; in test [4], 0%; in test [5], 0%. Also, the mortality at 312 ppm stood at 100% in test [1], 100% in test [3], 70% in test [4] and 0% in test [5]. Also, the mortality at 1250 ppm in test [1] stood at 100%; in test [2] it was 0%; in test [4], 90%; in test [5] it was 20%. The mortality at 20 ppm in test [3] came to 100%.
Consider `CC1(C)C(C=CSc2ccc(F)cc2)C1C(=O)OC(C#N)c1cccc(Oc2ccccc2)c1` (mixture of isomers) [Example 6, α-cyano-3-phenoxybenzyl cis,trans-3-[2-(E,Z)-(4-fluorophenylthio)ethenyl]-2,2-dimethylcyclopropanecarboxylate], for which the mortality at 78 ppm was 0% in test [1]; 0% in test [2]; 94% in test [3]; 5% in test [4]; 0% in test [5]. Further, the mortality at 312 ppm is 10% in test [1]; 0% in test [2]; 100% in test [3]; 38% in test [4]; 0% in test [5]. The mortality at 1250 ppm is 100% in test [1], 0% in test [2], 100% in test [4] and 56% in test [5]. Moreover, in test [3], the mortality at 20 ppm is 68%.
Consider `CC1(C)C(C=C(Cl)Sc2ccc(F)cc2)C1C(=O)OC(C#N)c1cccc(Oc2ccccc2)c1` (mixture of isomers) [Example 8, α-cyano-3-phenoxybenzyl cis,trans-3-[2-(E,Z)-chloro-2-(4-fluorophenylthio)ethenyl]-2,2-dimethylcyclopropanecarboxylate], for which the mortality at 78 ppm in test [1] was found to be 46%; in test [3], 100%; in test [4], 75%; in test [5], 40%. Besides, the mortality at 312 ppm worked out at 94% in test [1], 100% in test [3], 100% in test [4] and 80% in test [5]. The mortality at 1250 ppm was determined as 93% in test [1], 100% in test [2], 100% in test [4] and 90% in test [5]. The mortality at 20 ppm in test [3] is 100%.
